Among the data in ChEMBL document CHEMBL1143269, “2-(6-Phenyl-1H-indazol-3-yl)-1H-benzo[d]imidazoles: design and synthesis of a potent and isoform selective PKC-zeta inhibitor” (Bioorg Med Chem Lett, 2009) are IC50, Ratio IC50 and inhibition values, retold here.

The structures appear in SMILES notation.

In experiment [1] the target is Cyclin-dependent kinase 2 (Homo sapiens, UniProt P24941). Description: Inhibition of human CDK2.
Experiment [2] concerns the target T1, Protein kinase C zeta type (Homo sapiens, UniProt Q05513).
T1 sequence (Q05513 whole entry): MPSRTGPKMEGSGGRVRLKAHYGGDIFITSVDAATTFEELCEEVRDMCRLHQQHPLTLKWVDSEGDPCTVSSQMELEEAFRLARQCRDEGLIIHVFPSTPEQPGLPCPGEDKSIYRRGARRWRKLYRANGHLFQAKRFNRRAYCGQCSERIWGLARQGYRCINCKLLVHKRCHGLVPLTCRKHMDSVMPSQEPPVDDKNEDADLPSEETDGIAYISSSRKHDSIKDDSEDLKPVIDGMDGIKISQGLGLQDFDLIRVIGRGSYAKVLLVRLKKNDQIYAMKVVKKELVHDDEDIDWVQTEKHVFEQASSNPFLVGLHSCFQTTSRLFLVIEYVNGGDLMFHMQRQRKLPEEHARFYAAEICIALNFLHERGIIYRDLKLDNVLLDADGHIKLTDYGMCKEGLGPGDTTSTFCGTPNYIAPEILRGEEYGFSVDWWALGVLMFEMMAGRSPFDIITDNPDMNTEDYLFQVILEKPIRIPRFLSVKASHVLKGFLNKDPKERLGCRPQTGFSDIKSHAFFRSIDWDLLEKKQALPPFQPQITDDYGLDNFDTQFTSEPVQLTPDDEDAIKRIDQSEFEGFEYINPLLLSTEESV
Briefly: Inhibition of human PKCzeta.

Experiment [3] in a line: Inhibition of GSK3.
The species named for experiment [4] is Homo sapiens. Description: Selectivity ratio of IC50 for human CDK2 to IC50 for human PKCzeta.
The target of experiment [5] is ALK tyrosine kinase receptor (Homo sapiens) (UniProt Q9UM73). Briefly: Inhibition of ALK at 10 uM.
Experiment [6] concerns the target Tyrosine-protein kinase ABL1 (Homo sapiens) (UniProt P00519). Briefly: Inhibition of Abl at 10 uM.
Experiment [7] has as its target Aurora kinase A (Homo sapiens) (UniProt O14965). Briefly: Inhibition of Aurora A at 10 uM.
Experiment [8] deals with Tyrosine-protein kinase receptor UFO (Homo sapiens) (UniProt P30530). Briefly: Inhibition of Axl at 10 uM.
The target of experiment [9] is Cytoplasmic tyrosine-protein kinase BMX (Homo sapiens) (UniProt P51813). Description: Inhibition of Bmx at 10 uM.
For experiment [10], the target named is Calcium/calmodulin-dependent protein kinase type IV (Homo sapiens) (UniProt Q16566). Briefly: Inhibition of CAMK4 at 10 uM.
Experiment [11] addresses Serine/threonine-protein kinase Chk1 (Homo sapiens) (UniProt O14757). Description: Inhibition of CHK1 at 10 uM.
A short description of experiment [12]: Inhibition of CK2 at 10 uM.
For experiment [13], the target named is Casein kinase I isoform delta (Rattus norvegicus) (UniProt Q06486). Briefly: Inhibition of rat CK1delta at 10 uM.
Experiment [14] concerns the target Tyrosine-protein kinase CSK (Homo sapiens) (UniProt P41240). Briefly: Inhibition of CSK at 10 uM.
For experiment [15], the target named is Epidermal growth factor receptor (Homo sapiens) (UniProt P00533). Description: Inhibition of EGFR at 10 uM.
Experiment [16] has as its target Ephrin type-B receptor 4 (Homo sapiens) (UniProt P54760). Description: Inhibition of EphB4 at 10 uM.
Experiment [17] has as its target Tyrosine-protein kinase Fes/Fps (Homo sapiens) (UniProt P07332). Briefly: Inhibition of Fes at 10 uM.
The target of experiment [18] is Receptor-type tyrosine-protein kinase FLT3 (Homo sapiens) (UniProt P36888). Briefly: Inhibition of Flt3 at 10 uM.
Receptor-type tyrosine-protein kinase FLT3 (Homo sapiens), sequence (P36888 whole entry): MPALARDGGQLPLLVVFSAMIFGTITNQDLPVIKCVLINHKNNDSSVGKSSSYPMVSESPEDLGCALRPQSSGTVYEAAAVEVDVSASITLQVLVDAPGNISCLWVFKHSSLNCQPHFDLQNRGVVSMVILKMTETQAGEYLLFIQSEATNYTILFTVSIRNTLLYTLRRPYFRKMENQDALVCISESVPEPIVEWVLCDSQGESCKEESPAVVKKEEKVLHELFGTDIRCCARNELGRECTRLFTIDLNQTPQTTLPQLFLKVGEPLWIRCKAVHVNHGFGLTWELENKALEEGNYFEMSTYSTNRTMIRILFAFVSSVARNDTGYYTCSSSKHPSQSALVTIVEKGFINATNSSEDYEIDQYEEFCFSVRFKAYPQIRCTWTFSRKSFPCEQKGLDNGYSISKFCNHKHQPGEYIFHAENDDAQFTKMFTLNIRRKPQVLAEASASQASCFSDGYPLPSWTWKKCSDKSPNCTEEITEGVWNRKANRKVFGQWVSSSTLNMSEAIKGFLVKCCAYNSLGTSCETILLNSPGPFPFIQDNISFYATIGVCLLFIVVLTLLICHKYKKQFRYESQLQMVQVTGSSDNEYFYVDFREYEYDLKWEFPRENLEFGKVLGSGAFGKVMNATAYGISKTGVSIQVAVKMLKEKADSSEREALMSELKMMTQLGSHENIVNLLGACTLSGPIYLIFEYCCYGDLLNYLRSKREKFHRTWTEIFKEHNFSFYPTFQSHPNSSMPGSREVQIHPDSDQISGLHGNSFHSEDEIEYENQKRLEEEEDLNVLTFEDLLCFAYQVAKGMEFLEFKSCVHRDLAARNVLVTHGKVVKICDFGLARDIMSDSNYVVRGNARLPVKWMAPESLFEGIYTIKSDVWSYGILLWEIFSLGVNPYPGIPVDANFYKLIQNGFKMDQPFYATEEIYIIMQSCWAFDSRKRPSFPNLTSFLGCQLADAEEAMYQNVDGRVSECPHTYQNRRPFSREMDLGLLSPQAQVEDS
Experiment [19] concerns the target Tyrosine-protein kinase Fyn (Homo sapiens) (UniProt P06241). Description: Inhibition of Fyn at 10 uM.
Experiment [20] addresses Glycogen synthase kinase-3 beta (Homo sapiens) (UniProt P49841). Description: Inhibition of GSK3-beta at 10 uM.
Experiment [21] deals with Insulin-like growth factor 1 receptor (Homo sapiens) (UniProt P08069). Briefly: Inhibition of IGF1R at 10 uM.
Experiment [22] concerns the target Insulin receptor (Homo sapiens) (UniProt P06213). Briefly: Inhibition of insulin receptor at 10 uM.
For experiment [23], the target named is Tyrosine-protein kinase Lck (Homo sapiens) (UniProt P06239). Description: Inhibition of Lck at 10 uM.
The target in experiment [24] is Dual specificity mitogen-activated protein kinase kinase 1 (Homo sapiens) (UniProt Q02750). Description: Inhibition of MEK1 at 10 uM.
The target of experiment [25] is Platelet-derived growth factor receptor beta (Homo sapiens) (UniProt P09619). Briefly: Inhibition of PDGFRbeta at 10 uM.
A short description of experiment [26]: Inhibition of PKA at 10 uM.
Experiment [27] has as its target RAC-beta serine/threonine-protein kinase (Homo sapiens) (UniProt P31751). Briefly: Inhibition of PKB beta at 10 uM.
Experiment [28] concerns the target RAC-gamma serine/threonine-protein kinase (Homo sapiens) (UniProt Q9Y243). Description: Inhibition of PKB gamma at 10 uM.
The target of experiment [29] is RAC-alpha serine/threonine-protein kinase (Homo sapiens) (UniProt P31749). Briefly: Inhibition of PKB alpha at 10 uM.
The target of experiment [30] is Proto-oncogene tyrosine-protein kinase receptor Ret (Homo sapiens) (UniProt P07949). Description: Inhibition of Ret at 10 uM.
Proto-oncogene tyrosine-protein kinase receptor Ret (Homo sapiens), sequence (P07949 whole entry): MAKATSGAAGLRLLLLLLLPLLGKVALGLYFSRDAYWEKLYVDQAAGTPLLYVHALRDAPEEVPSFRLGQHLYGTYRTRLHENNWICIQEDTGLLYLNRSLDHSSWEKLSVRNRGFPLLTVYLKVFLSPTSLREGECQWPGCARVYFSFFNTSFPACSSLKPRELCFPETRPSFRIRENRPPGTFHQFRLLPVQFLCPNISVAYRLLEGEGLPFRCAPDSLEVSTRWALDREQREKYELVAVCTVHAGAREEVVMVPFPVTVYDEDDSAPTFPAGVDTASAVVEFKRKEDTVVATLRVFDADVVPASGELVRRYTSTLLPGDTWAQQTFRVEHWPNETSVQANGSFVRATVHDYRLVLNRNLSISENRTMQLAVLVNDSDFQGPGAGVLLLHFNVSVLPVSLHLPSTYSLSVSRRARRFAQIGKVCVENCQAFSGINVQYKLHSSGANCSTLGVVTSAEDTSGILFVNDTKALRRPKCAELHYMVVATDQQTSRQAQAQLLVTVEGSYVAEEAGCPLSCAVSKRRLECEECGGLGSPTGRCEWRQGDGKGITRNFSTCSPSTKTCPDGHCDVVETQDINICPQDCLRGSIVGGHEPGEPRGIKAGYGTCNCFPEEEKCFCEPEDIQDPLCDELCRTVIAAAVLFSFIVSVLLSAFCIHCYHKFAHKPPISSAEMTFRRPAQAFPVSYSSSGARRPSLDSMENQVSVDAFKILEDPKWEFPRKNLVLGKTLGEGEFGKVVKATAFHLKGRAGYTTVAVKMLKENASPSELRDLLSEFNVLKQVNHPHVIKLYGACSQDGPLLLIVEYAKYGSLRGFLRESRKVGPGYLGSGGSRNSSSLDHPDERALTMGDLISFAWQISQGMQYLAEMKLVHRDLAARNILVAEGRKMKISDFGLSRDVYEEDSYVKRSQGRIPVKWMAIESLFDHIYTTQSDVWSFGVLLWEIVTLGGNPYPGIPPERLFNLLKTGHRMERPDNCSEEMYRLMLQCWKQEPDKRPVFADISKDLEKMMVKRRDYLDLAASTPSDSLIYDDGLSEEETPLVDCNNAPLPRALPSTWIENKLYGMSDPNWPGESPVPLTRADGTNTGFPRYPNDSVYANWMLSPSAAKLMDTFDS
In experiment [31] the target is Rho-associated protein kinase 2 (Homo sapiens) (UniProt O75116). Briefly: Inhibition of Rock2 at 10 uM.
Experiment [32] concerns the target Proto-oncogene tyrosine-protein kinase Src (Homo sapiens) (UniProt P12931). Description: Inhibition of Src at 10 uM.
Experiment [33] deals with Tyrosine-protein kinase SYK (Homo sapiens) (UniProt P43405). Description: Inhibition of Syk at 10 uM.
The target in experiment [34] is Angiopoietin-1 receptor (Homo sapiens) (UniProt Q02763). Description: Inhibition of Tie2 at 10 uM.
The target in experiment [35] is BDNF/NT-3 growth factors receptor (Homo sapiens) (UniProt Q16620). Description: Inhibition of TrkB at 10 uM.
Experiment [36] concerns the target Tyrosine-protein kinase ZAP-70 (Homo sapiens) (UniProt P43403). Briefly: Inhibition of Zap70 at 10 uM.
For experiment [37], the target named is RAF proto-oncogene serine/threonine-protein kinase (Homo sapiens) (UniProt P04049). Briefly: Inhibition of c-Raf at 10 uM.
RAF proto-oncogene serine/threonine-protein kinase (Homo sapiens), sequence (P04049 whole entry): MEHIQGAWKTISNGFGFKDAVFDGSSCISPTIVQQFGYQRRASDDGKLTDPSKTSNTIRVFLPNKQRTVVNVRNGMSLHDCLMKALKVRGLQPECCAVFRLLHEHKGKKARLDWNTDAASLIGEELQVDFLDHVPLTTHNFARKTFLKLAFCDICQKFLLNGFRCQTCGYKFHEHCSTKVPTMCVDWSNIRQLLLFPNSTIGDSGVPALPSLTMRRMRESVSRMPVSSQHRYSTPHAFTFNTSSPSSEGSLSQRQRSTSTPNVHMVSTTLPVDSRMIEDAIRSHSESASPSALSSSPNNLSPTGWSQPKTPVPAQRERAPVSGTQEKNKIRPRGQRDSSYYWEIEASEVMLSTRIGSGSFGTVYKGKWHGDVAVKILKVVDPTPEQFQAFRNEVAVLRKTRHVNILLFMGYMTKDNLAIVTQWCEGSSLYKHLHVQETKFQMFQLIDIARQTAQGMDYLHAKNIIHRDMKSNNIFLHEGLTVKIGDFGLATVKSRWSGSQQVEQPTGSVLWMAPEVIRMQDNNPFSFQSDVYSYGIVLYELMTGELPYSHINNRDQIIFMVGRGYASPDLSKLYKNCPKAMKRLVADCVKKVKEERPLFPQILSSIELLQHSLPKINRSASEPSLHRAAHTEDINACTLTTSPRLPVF
The species named for experiment [38] is Mus musculus. Description: Inhibition of mouse MKK4 at 10 uM.
Experiment [39] deals with Ribosomal protein S6 kinase beta-1 (Homo sapiens) (UniProt P23443). Briefly: Inhibition of P70S6K at 10 uM.
The nature of experiment [40]: Inhibition of rat CAMK2 at 10 uM.
Experiment [41] deals with 3-phosphoinositide-dependent protein kinase 1 (Homo sapiens) (UniProt O15530). Briefly: Inhibition of PDK1 at 10 uM.

Tyrosine-protein kinase ZAP-70 (Homo sapiens), sequence (P43403 whole entry): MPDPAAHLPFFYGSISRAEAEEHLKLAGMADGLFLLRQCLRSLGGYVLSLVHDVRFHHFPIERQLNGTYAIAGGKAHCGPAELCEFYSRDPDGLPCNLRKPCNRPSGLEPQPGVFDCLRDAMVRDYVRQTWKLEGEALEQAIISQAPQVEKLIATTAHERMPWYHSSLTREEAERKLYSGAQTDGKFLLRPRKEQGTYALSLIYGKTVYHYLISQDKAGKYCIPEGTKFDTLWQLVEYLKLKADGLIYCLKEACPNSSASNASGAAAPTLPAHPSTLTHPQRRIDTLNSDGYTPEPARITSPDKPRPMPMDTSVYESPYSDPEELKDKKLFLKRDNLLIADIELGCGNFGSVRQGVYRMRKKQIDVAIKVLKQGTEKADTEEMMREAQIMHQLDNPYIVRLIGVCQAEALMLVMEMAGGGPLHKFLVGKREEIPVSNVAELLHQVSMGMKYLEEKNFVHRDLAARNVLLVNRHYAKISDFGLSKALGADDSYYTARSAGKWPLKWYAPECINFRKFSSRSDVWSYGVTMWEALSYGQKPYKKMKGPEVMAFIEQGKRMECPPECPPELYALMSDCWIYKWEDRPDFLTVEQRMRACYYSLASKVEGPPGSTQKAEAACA
Glycogen synthase kinase-3 beta (Homo sapiens), sequence (P49841 whole entry, looked up): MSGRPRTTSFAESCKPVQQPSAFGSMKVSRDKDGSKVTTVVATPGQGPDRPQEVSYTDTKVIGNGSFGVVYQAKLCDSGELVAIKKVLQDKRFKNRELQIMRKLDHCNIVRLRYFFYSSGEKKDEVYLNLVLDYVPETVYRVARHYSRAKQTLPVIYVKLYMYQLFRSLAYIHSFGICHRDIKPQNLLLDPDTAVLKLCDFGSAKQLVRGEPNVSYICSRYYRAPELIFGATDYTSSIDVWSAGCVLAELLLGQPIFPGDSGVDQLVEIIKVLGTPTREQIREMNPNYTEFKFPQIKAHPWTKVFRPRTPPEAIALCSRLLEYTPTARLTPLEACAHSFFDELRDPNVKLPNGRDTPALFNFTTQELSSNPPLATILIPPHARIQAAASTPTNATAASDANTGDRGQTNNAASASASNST
Tyrosine-protein kinase Fyn (Homo sapiens), sequence (P06241 2-537 limits assumed): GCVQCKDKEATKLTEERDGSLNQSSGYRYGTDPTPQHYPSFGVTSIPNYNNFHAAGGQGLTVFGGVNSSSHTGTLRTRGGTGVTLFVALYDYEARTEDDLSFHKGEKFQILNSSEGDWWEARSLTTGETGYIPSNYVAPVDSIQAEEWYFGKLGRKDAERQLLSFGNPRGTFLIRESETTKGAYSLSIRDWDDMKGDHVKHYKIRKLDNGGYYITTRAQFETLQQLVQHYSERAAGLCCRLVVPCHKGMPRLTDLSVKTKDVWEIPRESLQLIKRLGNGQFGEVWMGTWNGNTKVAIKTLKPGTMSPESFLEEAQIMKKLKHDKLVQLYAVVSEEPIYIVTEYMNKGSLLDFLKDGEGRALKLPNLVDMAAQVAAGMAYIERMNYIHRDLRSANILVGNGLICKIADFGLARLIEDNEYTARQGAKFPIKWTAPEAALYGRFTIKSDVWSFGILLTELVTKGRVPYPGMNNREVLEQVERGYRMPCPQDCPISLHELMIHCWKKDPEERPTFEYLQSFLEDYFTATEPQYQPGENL
Serine/threonine-protein kinase Chk1 (Homo sapiens), sequence (O14757 whole entry): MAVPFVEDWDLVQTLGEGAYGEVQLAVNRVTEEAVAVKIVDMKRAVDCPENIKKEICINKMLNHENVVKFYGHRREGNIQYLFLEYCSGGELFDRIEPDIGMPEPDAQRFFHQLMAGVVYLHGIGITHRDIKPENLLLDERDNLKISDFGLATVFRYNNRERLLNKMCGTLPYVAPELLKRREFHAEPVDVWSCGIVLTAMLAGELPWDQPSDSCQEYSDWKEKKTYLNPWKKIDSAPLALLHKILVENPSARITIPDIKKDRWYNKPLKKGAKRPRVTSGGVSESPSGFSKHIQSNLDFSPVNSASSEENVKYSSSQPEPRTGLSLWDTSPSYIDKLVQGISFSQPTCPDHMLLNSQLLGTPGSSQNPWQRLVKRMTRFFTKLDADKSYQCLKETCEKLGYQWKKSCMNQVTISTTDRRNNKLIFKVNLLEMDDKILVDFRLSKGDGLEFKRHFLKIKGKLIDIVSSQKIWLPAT

The IC50 is the concentration needed to halve the response being measured. Low values mean greater potency in that assay, high ones weaker potency in that assay. Compound `CN1CCN(c2cccc3[nH]c(-c4n[nH]c5cc(-c6ccc(O)cc6)ccc45)nc23)CC1` gave an IC50 in experiment [1] of 0.0133 µM.
In experiment [1], `COc1ccc(-c2ccc3c(-c4nc5c(N6CCN(C)CC6)cccc5[nH]4)n[nH]c3c2)c(OC)c1` had an IC50 of 10 µM.
As to `CN1CCN(c2cccc3[nH]c(-c4n[nH]c5cc(-c6ccc(N(C)C)cc6)ccc45)nc23)CC1`, in [2], half-maximal inhibition (IC50) was put at 1.31 µM.
In experiment [1], `COc1cc(-c2ccc3c(-c4nc5c(N6CCN(C)CC6)cccc5[nH]4)n[nH]c3c2)ccc1N` gave an IC50 of 0.247 µM.
The same measure, in the same setting: with `CN1CCN(c2cccc3[nH]c(-c4n[nH]c5cc(-c6ccc(CO)cc6)ccc45)nc23)CC1` the figure was 21.5 µM.
In experiment [2], `CN1CCN(c2cccc3[nH]c(-c4n[nH]c5cc(-c6ccc7c[nH]nc7c6)ccc45)nc23)CC1` showed a 50% inhibitory concentration (IC50) of 1.07 µM.
The compound `CN1CCN(c2cccc3[nH]c(-c4n[nH]c5cc(-c6ccc(CN)cc6)ccc45)nc23)CC1` registered a half-maximal inhibitory concentration (IC50) in experiment [1] of 10 µM.
Same read-out and setting: with `CC(=O)c1ccc(-c2ccc3c(-c4nc5c(N6CCN(C)CC6)cccc5[nH]4)n[nH]c3c2)cc1` the figure was 10 µM.
In [2], `CN1CCN(c2cccc3[nH]c(-c4n[nH]c5cc(-c6ccc(S(N)(=O)=O)cc6)ccc45)nc23)CC1` returned an IC50 of 8.93 µM.
As for `O=C(NC1CC1)c1n[nH]c2cc(-c3ccc(O)cc3)c(Br)cc12`, the half-inhibitory concentration (IC50) turned out to be 0.005 µM in experiment [1] and 0.0008 µM in [3].
Turning to `COc1cc(-c2ccc3c(-c4nc5c(N6CCN(C)CC6)cccc5[nH]4)n[nH]c3c2)ccc1O`, the IC50 in [2] was found to be 0.00226 µM; in experiment [1], 0.0041 µM. Besides, in experiment [4], the Ratio IC50 turned out to be 1.8.
As to `COc1ccccc1-c1ccc2c(-c3nc4c(N5CCN(C)CC5)cccc4[nH]3)n[nH]c2c1`, the IC50 stood at 5.52 µM in [2] and 10 µM in [1]. Besides, in experiment [4], the Ratio IC50 was 1.8.
`CN1CCN(c2cccc3[nH]c(-c4n[nH]c5cc(-c6ccc(N)c(F)c6)ccc45)nc23)CC1`: inhibition in experiment [1] was half-maximal at 1.73 µM (IC50).
As usually defined, the inhibition is the share of the control response that was lost under treatment. `COc1cc(O)ccc1-c1ccc2c(-c3nc4c(N5CCN(C)CC5)cccc4[nH]3)n[nH]c2c1` gave an IC50 in experiment [1] of 0.102 µM. Moreover, the inhibition in experiment [5], in [6], in experiment [7], in experiment [8], in [9] and in experiment [10] was less than 50% in each case. Also, the inhibition in experiment [11], in [12], in experiment [13], in experiment [14], in [15] and in [16] was less than 50% in each case. Also, the inhibition in [17], in experiment [18], in experiment [19], in experiment [20], in [21] and in experiment [22] was less than 50% throughout. For the same compound, the inhibition in experiment [23], in experiment [24], in [25], in [26], in experiment [27] and in [28] was less than 50% in each case. Besides, the inhibition in experiment [29], in [30], in experiment [31], in experiment [32], in experiment [33] and in [34] was less than 50% throughout. For the same compound, the inhibition in experiment [35], in experiment [36], in [37], in experiment [38], in experiment [39] and in [40] was less than 50% throughout. Further, the inhibition in [41] was less than 50%.
For `CC(=O)Nc1ccc(-c2ccc3c(-c4nc5c(N6CCN(C)CC6)cccc5[nH]4)n[nH]c3c2)cc1`, the IC50 in [2] amounted to 8.8 µM; in experiment [1] it was 10 µM. The Ratio IC50 in [4] came out at 1.1.
`CN1CCN(c2cccc3[nH]c(-c4n[nH]c5cc(-c6ccc(C(=O)O)cc6)ccc45)nc23)CC1`: in [1], the IC50 was 10 µM.
Compound `CNc1ccc(-c2ccc3c(-c4nc5c(N6CCN(C)CC6)cccc5[nH]4)n[nH]c3c2)cc1` returned an IC50 in experiment [1] of 109 µM.
In the case of `CN1CCN(c2cccc3[nH]c(-c4n[nH]c5cc(-c6ccc7[nH]ccc7c6)ccc45)nc23)CC1`, the IC50 in [2] stood at 4.08 µM; in experiment [1] it was 10 µM. The Ratio IC50 in experiment [4] amounted to 2.5.
For the compound `COc1cc(F)ccc1-c1ccc2c(-c3nc4c(N5CCN(C)CC5)cccc4[nH]3)n[nH]c2c1`, the IC50 in [2] was 19 µM; in experiment [1], 10 µM. In experiment [4], the Ratio IC50 stood at 0.5.
As for `CN1CCN(c2cccc3[nH]c(-c4n[nH]c5cc(-c6cccc(N)c6)ccc45)nc23)CC1`, the figures for the 50% inhibitory concentration (IC50) in experiment [2] and in experiment [1] were 1.51 µM and 6.1 µM, respectively. For the same compound, the Ratio IC50 in experiment [4] turned out to be 4.
On to `CN1CCN(c2cccc3nc(-c4n[nH]c5cc(-c6ccc(N)cc6)ccc45)[nH]c23)CC1`, for which the inhibition in [5], in [6], in experiment [7], in experiment [8], in experiment [9] and in experiment [10] was less than 50% throughout. In addition, the inhibition in [11], in [12], in experiment [13], in [14], in [15] and in [16] was less than 50% in each case. Also, the inhibition in [17], in experiment [18], in experiment [19], in [20], in experiment [21] and in experiment [22] was less than 50% in each case. Besides, the inhibition in [23], in [24], in [25], in [26], in experiment [27] and in experiment [28] was less than 50% each time. In addition, the inhibition in experiment [29], in experiment [30], in [31], in experiment [32], in experiment [33] and in experiment [34] was less than 50% each time. The inhibition in experiment [35], in [36], in [37], in experiment [38], in [39] and in experiment [40] was less than 50% each time. In experiment [41], this compound displayed an inhibition of less than 50%.
